Measurements as given in patent publication US9180114B2, “Neurodegenerative diseases and methods of modeling” (PRESIDENT AND FELLOWS OF HARVARD COLLEGE, priority 2008, dated 2015).

Key:
mice = conditions: cited from earlier work; for induction of (cutaneous) vasodilation: agonist alone
[1] = test system: Hb9::GFP human ES cell-derived motor neurons on SOD1G93A glia; experiment: Survival of human ES cell-derived motor neurons co-cultured with SOD1G93A glia treated with prostaglandin D2 receptor antagonists; assay type: cell-based; conditions: for Hb9::GFP cells remaining (cell death / survival of motor neurons) on SOD1G93A glia: 10 days of treatment
[2] = test system: Hb9::GFP human ES cell-derived motor neurons; experiment: Survival of Hb9::GFP human ES cell-derived motor neurons co-cultured with non-transgenic (WT) glia treated with candidate factors; assay type: cell-based; conditions: 20 days of treatment
Method: After 24 hours, the cells had aggregated to form embryoid bodies (EBs), and the media was changed to remove debris by centrifuging the EBs and resuspending in fresh in human ES cell media without bFGF2 or plasmanate in low attachment 6-well plates. EBs were cultured as such for 13 more days, with half of the media changed every two days, and a complete media change every week. After 14 days, the EBs were induced toward a caudal and ventral identity using retinoic acid (1 μM, Sigma) and an agonist of the Shh signaling pathway (1 μM) in N2 media: 1:1 DMEM:F-12+Glutamate (Gibco), 10,000 units Penicillin and 1 mg/mL Streptomicin (Gibco), 1% N2 Supplement (Gibco), 0.2 mM ascorbic acid (Sigma-Aldrich), 0.16% D-(+)-Glucose (Sigma-Aldrich), BDNF (10 ng/ml, R&D Systems), for another 14 days. The EBs were then matured for a final 14 days in N2 media with GNDF (10 ng/mL, R&D Systems). After 42 days of differentiation, the EBs were dissociated. To dissociate the EBs, they were centrifuged at 1000 rpm for 5 min in a 15 ml falcon tube, and then washed once with PBS to eliminate residual media. The EBs were then incubated for 60 minutes at 37° C. in Earle's Balanced Salt Solution with 20 units of papain and 1000 units of Deoxyribonuclease I (Worthington Biochemical Corporation). EBs were triturated using a 2 mL serological pipette every 15-20 minutes during this incubation. When an almost single cell suspension was achieved, the cells were centrifuged for 5 minutes at 1000 RPM. […] These cells were then counted and plated on Poly-D-Lysine/Laminin CultureSlides (BD biosciences) or on a layer of primary glial cells. Depending on the experiment, motor neurons or interneurons were counted 10 or 20 days after plating.
Non-transgenic glia were individually pretreated for 1 day with either one of the three cytokines MCP2, Cxcl7, or Rantes; with GMFb; an agonist of SHH pathway; or with PGD2. […] Replicate cultures were individually maintained for 20 days in the presence of each of the 6 factors, fixed, and the numbers of GFP positive motor neurons quantified. […]

In the case of `O=C(O)CCCCCCC1C(=O)NC(=O)N1CCC(O)C1CCCCC1` (stereo not shown) [BW245C], the “induction of (cutaneous) vasodilation” value (mice) is given as “induced vasodilation”.

In the case of `O=C(O)CCCCCCC1C(=O)N(Cc2ccccc2)C(=O)N1NCC(O)C1CCCCC1` (stereo not shown) [BWA868C], the “Hb9::GFP cells remaining (cell death / survival of motor neurons) on SOD1G93A glia” value [1] is reported as “significantly reduced cell death” and the “Hb9::GFP cells remaining (cell death / survival of motor neurons) on SOD1G93A glia” value ([1]; listed as BW868C) is reported as “significantly reduced neuronal cell death”.

In the case of `CCCCCC(=O)CCC1C(=O)CC(O)C1C/C=C\CCCC(=O)O` (stereo not shown) [DK-PGD2, 13,14-dihydro-15-keto-PGD2], the “induction of (cutaneous) vasodilation” value (mice) is given as “did not induce cutaneous vasodilation”.

In the case of `CS(=O)(=O)c1cc(F)cc2c3c(n(Cc4ccc(Cl)cc4)c12)[C@@H](CC(=O)O)CC3` [MK 0524], the “increase in the number of GFP positive neurons relative to untreated neurons plated on the same glia” value [1] is given as 32%, the “neuronal cell death for motor neurons cultured on SOD1G93A glia” value [1] is given as “significantly reduced neuronal cell death” and the “blockade of PGD2- and NA-induced vasodilation” value (mice; PGD2 or nicotinic acid (NA) challenge) is given as “blocked both PGD2- and NA-induced vasodilation”.

In the case of `CCCCC[C@H](O)/C=C/[C@H]1C(=O)C[C@H](O)[C@@H]1C/C=C\CCCC(=O)O` [PGD2, prostaglandin D2], the “number of motor neurons compared to the control condition” value ([2]; WT glia pretreated 1 day, 10 μM) is reported as 19%+/−2%.

B1: GMFb: glial maturation factor beta, induces a pro-inflammatory state in astrocytes (protein, UniProt Q9CQI3 2-142, looked up)
Glia maturation factor beta: SESLVVCDVAEDLVEKLRKFRFRKETHNAAIIMKIDKDERLVVLDEELEGVSPDELKDELPERQPRFIVYSYKYQHDDGRVSYPLCFIFSSPVGCKPEQQMMYAGSKNKLVQTAELTKVFEIRNTEDLTEEWLREKLGFFH
For B1, the “number of human ES cell derived motor neurons compared to the control condition” value ([2]; non-transgenic (WT) glia pretreated 1 day, 250 ng/ml) was 95%+/−9%.

B2: Mcp2: cytokine over expressed in mutant glia (protein, UniProt Q9Z121 24-97, looked up)
C-C motif chemokine 8: GPDKAPVTCCFHVLKLKIPLRVLKSYERINNIQCPMEAVVFQTKQGMSLCVDPTQKWVSEYMEILDQKSQILQP
With B2 the “number of GFP positive motor neurons compared to the control condition” value ([2]; non-transgenic (WT) glia pretreated 1 day, 100 ng/ml) was 103%+/−8%.
